How the values were obtained:
[1] = test system: normal rat pulmonary artery smooth muscle cells (rPASMC CON); assay: BrdU cell proliferation assay, 0.1% FBS, 100 pM TGF-β, rPASMC CON; type: cell-based; details: 100 pM TGF-β
Method: BrdU (5-bromo-2-deoxyuridine) cell proliferation assay (BrdU assay)
A 48-well plate was used, and 1.5×10^4 cells were implanted in each well. After 24 hours, the medium was changed to serum-free culture medium and synchronized for 24 hours. A 2-fold concentration of the compound in serum-free culture medium is prepared and the cells were pretreated for 1 hour. Then, the same volume of culture medium containing 20% fetal bovine serum (FBS) was added to dilute the compound. The final concentration was 10% FBS culture medium and 1 times the concentration of the compound. In the experimental group that added TGF-β, the same volume of TGF-β culture medium containing 10 ng/mL was added, […] of the compound, and in the experimental group added with TGF-β, the entire process was conducted in culture medium containing 0.1% serum. Then, BrdU reagent was added about 6 hours later, and the cells were collected the next day for enzyme-linked immunosorbent assay (ELISA) analysis, the compound treatment time was about 24 hours, and the BrdU treatment time was about 18 hours.
Five compounds to be tested were screened by cell survival assay (MTT assay) and BrdU (5-bromo-2-deoxyuridine) cell proliferation assay, and the information of these compounds was listed in Table 1 below.

[2] = test system: TGF-β-stimulated PAI-1 promoter activity; assay: TGF-β stimulated Pai-1 luciferase assay in MLECs-clone32 cells; type: cell-based; details: TGF-β 50 pM, 4 hours, read-out: IC50 value of compound inhibiting TGF-β-stimulated Pai-1 luciferase activity (%)
Text: TGF-β Stimulated Pai-1 Luciferase Assay
MLECs-clone32 cell line was used to measure the impact of different compounds on the downstream gene, plasminogenactivator inhibitor 1 (PAI-1) performance stimulated by TGF-β. MLECs-clone32 is an expression construct that is stably transfected for the Mv1Lu cell line, and the expression construct PAI-1 Luciferase contains a truncated (PAI-1) promoter fused to the firefly luciferase reporter gene^11,12. The activity stimulated by the truncated PAI-I promoter was quantified by using a luciferase assay. The luciferase activity stimulated by TGF-β in cells without compound treatment was set as 100%, and the effects of each compound on TGF-β-stimulated PAI-I promoter activity were compared. The steps for measuring Pai-1 luciferase activity include using a 96-well plate (DMEM medium containing 10% FBS), seeding each well with 1.5×10^5 cells, and culturing in an incubator overnight. After discarding the medium the next day, cells in DMEM medium with or without the addition of test compounds were treated with recombinant TGF-β (50 pM) and allowed to react in a 37° C. incubator for 4 hours. The cell culture medium was aspirated, washed with PBS, and the activity of Pai-1 luciferase was evaluated by luciferase assay.

[3] = test system: monocrotaline induced pulmonary arterial hypertension rat; assay: Monocrotaline-induced pulmonary arterial hypertension rat model, Example 3 (7-DHC vs macitentan); type: in vivo; details: for Right ventricle pressure (RVP): 25th day after monocrotaline induction, MCT rats 28.97 mmHg; for Arterial gas analysis PaO2 and PaCO2, in words: between groups CON, MCT and treated; for Thickening of pulmonary arteries, in words: p<0.001, vs MCT rats (exceeded 65%); for Base excess (BE) value: MCT group −6, normal −2 to +2; for Average right ventricle hypertrophy ratio (RV/S+LV): MCT rats 71.64%, normal rats 26.7%
Text: Pulmonary arterial hypertension animal experimental model
The present disclosure utilizes injection of monocrotaline to induce symptoms of pulmonary arterial hypertension in rats to establish a pulmonary arterial hypertension animal experimental model suitable for screening test drugs.
The diagnostic method of clinical pulmonary arterial hypertension standards is right heart catheterization, which is defined as mean pulmonary arterial pressure (mPAP) greater than or equal to 20 mmHg. The diagnostic criteria for pulmonary arterial hypertension, in addition to an increase in mean pulmonary arterial pressure, need to be combined with pulmonary vascular resistance (PVR) greater than 3 Wood unit. The right ventricle pressure (RVP) and systemic mean blood pressure (mbp) in rats with pulmonary arterial hypertension were measured by Millar Model PCU200 pressure system, and the heart rate (HR) was also monitored at the same time. After measuring the hemodynamic data, the arterial blood was extracted from the carotid artery of the pulmonary arterial hypertension rat, and the Abbott blood oximeter (i-STAT) combined with Abbott's special chip cartridge (i-STAT Cartridge G3+) was used to measure arterial gas analysis data such as pH, PaO2, PaCO2, HCO3 and base excess (BE) value in quantitative whole blood samples. The normal pH value is between 7.35 and 7.45, and the pH value indicates whether the experimental animal has the condition of acidemia, alkalemia, acidosis or alkalosis. The normal value of PaO2 is between 80 and 100 mmHg, which reflects the effectiveness of gas exchange (ventilation/perfusion). The normal value of PaCO2 is between 35 and 45 (such as 38 and 42) mmHg, which can evaluate the effectiveness of alveolar ventilation. The acid produced by food, tissue decomposition, inflammation and hypoxia rely on the lungs to excrete volatile acid CO2 (short-term) and the bicarbonate (HCO3^−) produced by the kidneys (long-term) to neutralize non-volatile acids, while the normal value of bicarbonate hydrogen radical (HCO3^−) is between 22 and 26 meq/L. BE is the base excess value, its normal value ranges from −2 to +2, the negative value represents the degree of alkali ion deficiency in the blood, a negative BE value (−) that is too high indicates metabolic acidosis, and a positive value (+) that is too high is metabolic alkalosis. At the end of the experiment, the rats were sacrificed and their hearts were removed and the left and right ventricles were separated and weighed (RV)/(S)+(LV).
Monocrotaline was utilized to induce pulmonary arterial hypertension rat animal model, intraperitoneal injection (IP) TGF-β receptor inhibitor 7-DHC (039) and oral administration of macitentan (soluble in methylcellulose), 7-DHC (039) was divided into two groups according to the dosage: 10 mg/kg or 20 mg/kg, and the dosage of macitentan group was 30 mg/kg.

`CC(C)CCCC(C)C1CCC2C3=CC=C4CC(O)CCC4(C)C3CCC21C` (centres unmarked) [Code 039, 7-DHC] was tested, and the EC50 ([1]; Rattus norvegicus, CON (normal rPASMC), 0.1% FBS, read-out: EC50) was 30 µM, the “Inhibition of cell growth (in words)” value ([1]; rPASMC CON3, 0.1% FBS, 25 μM, FIG. 3) was “significant inhibitory effects” and the IC50 [2] was 15.5 µM. For the same molecule, the “Right ventricle pressure (RVP)” value ([3]; 10 mg/kg IP) was 17.61 mmHg, the “Arterial gas analysis PaO2 and PaCO2, in words” value ([3]; 10 mg/kg IP) was “no significant difference” and the “Thickening of pulmonary arteries, in words” value ([3]; 10 mg/kg IP) was “significantly reduced”. For the same molecule, the “Base excess (BE) value” ([3]; 10 mg/kg IP) was −3, the “Average right ventricle hypertrophy ratio (RV/S+LV)” value ([3]; 10 mg/kg IP) was 53.96% and the “Activity of the rats” value ([3]; 20 mg/kg IP) was “did not affect”. For the same molecule, the Survival rate ([3]; 20 mg/kg IP) was 100%, the Weight of rats ([3]; 20 mg/kg IP) was “decreased significantly” and the “Right ventricle pressure (RVP)” value ([3]; 20 mg/kg IP) was 19.96 mmHg. For the same molecule, the “Arterial gas analysis PaO2 and PaCO2, in words” value ([3]; 20 mg/kg IP) was “no significant difference”, the “Thickening of pulmonary arteries, in words” value ([3]; 20 mg/kg IP) was “significantly reduced” and the “Base excess (BE) value” ([3]; 20 mg/kg IP) was −1.4. The “Average right ventricle hypertrophy ratio (RV/S+LV)” value ([3]; 20 mg/kg IP) was 62.97% and the “Systemic average blood pressure and heartbeat, in words” value ([3]; 10 or 20 mg/kg IP) was “did not significantly reduce”.

From US20240408112A1, “METHOD FOR PREVENTING OR TREATING PULMONARY ARTERIAL HYPERTENSION BY USING 7-DEHYDROCHOLESTEROLS OR SALTS, OXIDES, METABOLITES, OR DERIVATIVES THEREOF” (EXCELSIOR PHARMATECH LABS., priority 2023, published 2024)
